For orientation: IC50 means the concentration that inhibits the measured activity by half.

The subject of data set [1] is A2780 ovarian cancer cell line (cisplatin sensitive). The data set is described as follows: In vitro cytotoxicity assay (MTS), A2780. The class given is cell-based, human. To be noted: MTS after 72 hours, ±SD. How it is done: (§1) The MDA-MB-231-mCherry breast cancer cells were cultured in Dulbecco's modified Eagle's medium (DMEM) and supplemented with 5% heat-inactivated fetal bovine serum (FBS), 50 units/ml penicillin, 50 μg/ml streptomycin, 2 mM L-glutamine, and 1 μg/ml blasticidin S (Sigma). The A2780 and A2780^CP ovarian cancer cell lines and the multiple myeloma RPMI 8226 cell line were cultured in RPMI 1640 medium supplemented with 10% FBS, 50 units/ml penicillin, 50 μg/ml streptomycin, 2 mM L-glutamine. The U-87 and HTC-116 cancer cell lines were cultured without antibiotics. Cells were grown at 37° C. in a humidified atmosphere of 5% of CO2.
(§2) B. In Vitro Cytotoxicity Assay for MDA-MB-231mCherry, A270 and A2780CP Cancer Cell Lines.
The cytotoxicities of compound (1), cisplatin, and As2O3 were assessed by MTS assay using the CellTiter 96 Aqueous MTS (Promega). The 100 μL aliquots of cell suspension (1.0×10^5 cells/ml) were plated in 96-well tissue culture plates in the incubator overnight at 37° C. in a humidified atmosphere of 5% of CO2. The serial dilutions of compound (1), cisplatin, and As2O3 in appropriate media were transferred to the cells. The MTS solution (20 μL) was added after 72 hours and the absorbance was measured at 495 nm 4 hours later. Sigmoidal dose response curves were plotted using the GraphPad Prism software. The IC50 values were obtained on at least three independent experiments. In vitro cytotoxicity assay for U-87 and HTC-116 cancer cell line. For the experiment, cells were cultured in RPMI 1640 medium with 5% FBS and 2 mM L-glutamine. […] HCT-116 and U-87 cancer cell were plated in 96 well plates. The cells were plated in four replicates. The densities of the cells were 5000 and 10000 per well in 90 μL for HTC-116 and U-87, respectively. […] The cells were treated with 100, 10, 1, 0.1 0.01, 0.001, 0.0001, 0.00001 and 0.000001 μM of compound (1), cisplatin, and As2O3. […] The plates were shaken for 2 minutes and allowed to sit for activation prior to reading for 10 minutes. Plates were read on Biotek Synergy H1 (Biotek, Wenooski, Vt.) reader capable of luminescence detection.

For data set [2], the system named is A2780^CP ovarian cancer cell line (cisplatin resistant). It is filed as cell-based, human. To be noted: for IC50: ovarian cisplatin resistant, MTS after 72 hours, ±SD. How it is done: as §1, §2
(§3) The cytotoxicities of compound (1), cisplatin, and As2O3 were assessed by MTS assay using the CellTiter 96 Aqueous MTS (Promega). The 100 μL aliquots of cell suspension (1.0×10^5 cells/ml) were plated in 96-well tissue culture plates in the incubator overnight at 37° C. in a humidified atmosphere of 5% of CO2. The serial dilutions of compound (1), cisplatin, and As2O3 in appropriate media were transferred to the cells. The MTS solution (20 μL) was added after 72 hours and the absorbance was measured at 495 nm 4 hours later. Sigmoidal dose response curves were plotted using the GraphPad Prism software. The IC50 values were obtained on at least three independent experiments. In vitro cytotoxicity assay for U-87 and HTC-116 cancer cell line. For the experiment, cells were cultured in RPMI 1640 medium with 5% FBS and 2 mM L-glutamine. […] HCT-116 and U-87 cancer cell were plated in 96 well plates. The cells were plated in four replicates. The densities of the cells were 5000 and 10000 per well in 90 μL for HTC-116 and U-87, respectively. […] The cells were treated with 100, 10, 1, 0.1 0.01, 0.001, 0.0001, 0.00001 and 0.000001 μM of compound (1), cisplatin, and As2O3. After 48 hours post drug treatment all plates were allowed to equilibrate for 30 minutes at room temperature from incubator. Addition of 100 μL of Cell Titer Glow (Promega, Fitchburg, Wis.) reagent was added to the wells. The plates were shaken for 2 minutes and allowed to sit for activation prior to reading for 10 minutes. Plates were read on Biotek Synergy H1 (Biotek, Wenooski, Vt.) reader capable of luminescence detection.

For data set [3], the system named is MDA-MB-231-mCherry breast cancer cells. The class given is cell-based, human. The conditions noted are these: triple negative breast cancer; MTS after 72 hours; ±SD. How it is done: as §1, §2, §3
Another data set deals with colon HCT-116 cells. It is filed as cell-based, human. The conditions noted are these: Cell Titer Glow, 48 hours post drug treatment, ±SD, read-out: IC50 values in μM (±SD), HTC−116. How it is done:
as §1, §3
On the technique in general: In ATP-based viability assays light output follows the ATP content of the culture.

A further data set deals with glioblastoma U-87 cells. It is filed as cell-based, human. To be noted: Cell Titer Glow, 48 hours post drug treatment, ±SD. Here is the method: as §1, §3
For data set [4], the system named is multiple myeloma RPMI 8226 cell line. It is filed as cell-based, human. The conditions noted are these: ±SD. How it is done:
as §1, §3

Data set [5] is described as follows: Linkage isomerization in [D6]DMSO solution by NMR. It is filed as physicochemical. The conditions noted are these: compound (5) dissolved in [D6]DMSO, room temperature; S-isomer = compound (5), N-isomer = compound (6). The text has this:
Solution NMR and X-ray crystallography confirm that the Pt—As bond remained intact. Crystals suitable for a single crystal X-ray analysis were obtained when compound (5) was synthesized in a 1:1 water/methanol mixture, where the SCN^− ion is bound to Pt(II) through the sulfur atom (FIG. 1D). […] Assignments of chemical shifts for the S- and N-bound isomers signals are based on multidimensional ^195Pt and ^15N NMR spectroscopy on sample of compound (5) which is synthesized using thiocyanate enriched in ^13C and ^15N at 99% (FIG. 2).
Cisplatin, K2[PtCl4], DMSO, methanol, acetonitrile, propionitrile and As2O3 were purchased from Sigma-Aldrich and used without further purification. Media for the cell cultures and all other cell supplements were purchased from Invitrogen. The following spectrometers were used: NMR: Bruker Avance-III 600 and 500 MHz; chemical shifts (^1H, ^13C) were referenced to tetramethylsilane at 0.000 ppm ^1H and ^13C if it was present, and to residual solvent signal for samples in which TMS was absent (for [D6]DMSO, δH=2.50 ppm and δC=39.5 ppm). […] UV/Vis electron absorbance measurements were performed on a Perkin Elmer Lambda 650 spectrophotometer. […]

Data set [6] deals with panel of human cancer cell lines. Put plainly: Anticancer activity in a panel of human cancer cell lines. It is filed as cell-based. How it is done:
as §1
The cytotoxicities of compound (1), cisplatin, and As2O3 were assessed by MTS assay using the CellTiter 96 Aqueous MTS (Promega). The 100 μL aliquots of cell suspension (1.0×10^5 cells/ml) were plated in 96-well tissue culture plates in the incubator overnight at 37° C. in a humidified atmosphere of 5% of CO2. The serial dilutions of compound (1), cisplatin, and As2O3 in appropriate media were transferred to the cells. The MTS solution (20 μL) was added after 72 hours and the absorbance was measured at 495 nm 4 hours later. […] The plates were shaken for 2 minutes and allowed to sit for activation prior to reading for 10 minutes. Plates were read on Biotek Synergy H1 (Biotek, Wenooski, Vt.) reader capable of luminescence detection.

Data set [7] in a line: Solubility of the isolated complex. It is filed as physicochemical. How it is done: Cisplatin (300 mg, 1.00 mmol) or K2[PtCl4] (415 mg, 1.00 mmol) was added to 125 cm^3 of 9:1 CH3CN/H2O (v/v). The mixture was stirred at 90° C. Once the platinum compound was dissolved, 396 mg As2O3(2.00 mmol) was added to the solution, and the reaction mixture was stirred at 90° C. for 72 hours. The resulting mixture was filtered, and the filtrate was left at room temperature in a glass beaker for approximately 4 weeks until crystals formed. Crystals suitable for a single crystal X-ray analysis were retrieved from solution. The solution was filtered, washed with CH3CN:H2O (9:1 mixture), and the obtained crystals were dried in a dessicator. Yield 350 mg product (75%; 23% when cisplatin is used). […] Elemental analysis (% calcd., found for C7H18.5AsClN3.5O6Pt): C (15.20, 15.24), H (3.37, 3.36), N (8.86, 8.69). NMR: ^1H NMR (600 MHz, [D6]DMSO, 25° C.) δ: 8.91 (s, 2H—OH), 8.15 (s, 2H—NH), 2.13 (s, 6H—CH3). ^13C NMR (150 MHz, [D6]DMSO, 25° C.): δ 172.1 (C-1, C-3), 171.4 (C-5, C-7), 22.5 (C-6, C-8), 16.6 (C-2, C-4). ^15N NMR (60 MHz, from the ^1H-^15N HSQC, [D6]DMSO, referenced to ^15NH4Cl, 25° C.): δ 106.4 (N-1, N-2), ^195Pt NMR (129 MHz, [D6]DMSO, 25° C.), δ: −3589 (s, 1Pt) ppm. UV/Vis ((methanol-water=1:1): λ1=283 nm (ε=4062 dm^3 mol^−1 cm^−1), λ2=247 nm (ε=3621 dm^3 mol^−1 cm^−1), sh. 260 nm.
LC/ESI-MS data were recorded every 24 hours. The color gradually turned yellow and ultimately colorless over the 4 day period. The resulting mixture was filtered and left to sit (pH roughly 2) at 25° C., and, within a week, crystals suitable for single crystal X-ray analysis appeared. The solution was filtered again, washed with H2O, dried, and weighed (212 mg 44%).
Compound (1) obtained in Example 2 (100 mg 0.18 mmol) was dissolved in 4 cm^3 of methanol and added to an equal-molar solution of KSCN (17.6 mg 0.180 mmol) in 4 cm^3 of water. The reaction mixture was allowed to stir at 50° C. for 5 hours. The mixture was filtered and the solution was left standing at room temperature until crystals appeared. The obtained crystals were removed by filtration. Yield: 60.00 mg (52%). Elemental analysis (% calcd., found for PtC5H10N3O4SAs): C (12.56, 12.37), H (2.11, 1.97), N (8.78, 8.56). NMR data: ^1H NMR (600 MHz, [D6]DMSO): δ 2.21 (s, 6H, CH3), 7.70 (s, 2H, NH), 9.20 (s, 2H, OH). ^13C NMR (150 MHz, [D6]DMSO) δ 17.5 (CH3), 117.7 (SCN), 172.6 (CO); ^195Pt NMR (129 MHz, [D6]DMSO) δ −3861 ppm (s, 1Pt); UV/Vis (methanol-water=1:1): λ1=285 nm (ε=4217 dm^3 mol^−1 cm^−1); λ2=225 nm (ε=15919 dm^3 mol^−1 cm^−1), shoulder at 265 nm.

For the compound `N.N.[Cl][Pt][Cl]` [Cisplatin, Cis-diamminedichloroplatinum(II)], the IC50 in [1] was found to be 3.1 ± 1.1 µM; in data set [2], 47.3 ± 2.1 µM; in data set [3], 22.3 ± 2.8 µM; with colon HCT-116 cells, 5.5 ± 1.3 µM; with glioblastoma U-87 cells, 9.6 ± 0.8 µM; in [4] it was 1.9 ± 0.1 µM.
For the compound “[Pt(μ-NHC(CH3)O)2(NCS)As(OH)2] [Compound (6)]”, the “share of isomer in equilibrium mixture” value in [5] worked out at 36%.
In the case of arsenic trioxide [As2O3], the half-maximal inhibitory concentration (IC50) in data set [1] is 17.1 ± 1.5 µM; in data set [2], 21.6 ± 1.4 µM; in data set [3], 11.9 ± 2.3 µM; with colon HCT-116 cells, 9.4 ± 0.9 µM; with glioblastoma U-87 cells it was 1.6 ± 2.9 µM; in data set [4], 7.1 ± 0.2 µM.
As to “[Pt(μ-NHC(CH3)O)2ClAs(OH)2] [Compound (1)]”, the IC50 in data set [1] came out at 20.3 ± 4 µM; in data set [2], 21.4 ± 1.8 µM; in data set [3] it was 9.5 ± 0.1 µM; in the data set on colon HCT-116 cells, 1.6 ± 0.4 µM; with glioblastoma U-87 cells, 0.37 ± 0.11 µM; in data set [4], 4.5 ± 1 µM. Moreover, in [2] (ovarian A2780 and A2780^CP cell lines, RF value of <2 denotes no cross-resistance), the “resistance factor (RF)” value is 1.1. Moreover, the “anticancer activity in a panel of human cancer cell lines” value in data set [6] is “significant anticancer activity”. The “solubility in organic solvents” value in data set [7] is on record as “soluble in DMSO, methanol, ethanol”. For the same compound, the solubility in water entry in [7] is “partially in water”.
“[Pt(μ-NHC(CH3)O)2(SCN)As(OH)2] [Compound (5)]”: the “solubility in organic solvents” value in data set [7] is “DMSO and methanol”. In addition, in data set [5], the “share of isomer in equilibrium mixture” value stood at 64±1.2%.
As for “[Pt(μ-NHC(CH3CH2)O)2ClAs(OH)2] [Compound (2)]”, in data set [6], the “anticancer activity in a panel of human cancer cell lines” value is on record as “significant anticancer activity”. For the same compound, in data set [7], the “solubility in organic solvents” value is on record as “soluble in methanol, DMSO” and the solubility in water entry was “partially soluble in H2O”.

The values are drawn from patent publication US10118938B2, “Arsenoplatin anti-cancer agents” (priority 2012, dated 2018).
